Measured values reported in patent US20250154212A1, “METHOD OF DISRUPTING MEMORY AND LIPOPEPTIDE FOR USE IN SUCH METHOD” (The Research Foundation for The State University of New York, priority 2023, published 2025).

Assays:
[1] = system: KIBRA with conventional PKCs (PKCα, PKCβI, PKCβII, PKCγ); test: BiFC assay of KIBRA with conventional PKCs in HEK293T cells; type: cell-based, human; details: 10 μM
Procedure: KIBRA-PKMζ BiFC was performed as previously described (28), using pVen1-FLAG-KIBRA and pVen2-HA-PKMζ, in which PKMζ was cloned between EcoR1 and BamH1 sites. The constructs pVen1 and pVen2 encode the N-terminus (amino acids 1-154) and C-terminus (amino acids 155-238) of the Venus protein, respectively, and the Venus fragments were on the N-terminal of the fusion proteins. pVen2-HA-PKMζ[PKCι/λ-P291Q;F297S] was generated by site-directed mutagenesis using forward-cctggagAagcAAatceggatcccccggtCcctgtccgte and reverse-gacggacaggGaccgggggatccggatTTgctTctccagg primers and the QuickChange II XL Site-Directed Mutagenesis Kit (Agilent Technologies), following manufacturer's instructions. Additional pVen2-HA-PKC isoforms and pVen2-HA-CaMKIIα in the pVen2-HA vector were generated by cloning the N-terminus of the coding sequence of each kinase (table S1) to obtain an in-frame fusion at the C-terminus of the pVen2-HA. Human versions of KIBRA and kinases were used, and all PCR amplified sequences and constructs were verified by DNA sequencing.
HEK293T cells were cultured in Dulbecco's Modified Eagle's Medium supplemented with 10% heat-inactivated fetal bovine serum, 100 U/ml penicillin, […] streptomycin, 2 mM glutamine, and 10 mM HEPES in a T75 tissue culture flask with canted neck and ventilated cap. […]

[2] = system: contextual fear/threat memory; test: Contextual fear/threat conditioning, infusion into dorsal hippocampus, wild-type mice; type: in vivo, mouse; details: 10 nmol in 0.5 μl per hemisphere in hippocampus, tested 24 h post-infusion
Procedure: (§1) Mice were 8-10 weeks old at the time of cannulation and 9-11 weeks at the beginning of behavioral experiments. Mice were housed with cage-mates in plastic cages and provided with food and water ad libitum. Mice were maintained on a 12 h light/dark cycle (lights on at 7:00 am) and behavioral experiments began at 9:00 am.
(§2) Mice were injected intraperitoneally (1 ml/100 g body weight) with an anesthetic cocktail containing ketamine (10 mg/ml) and xylazine (2 mg/ml). Mice were provided with analgesic treatment prior to surgery (carprofen; 5 mg/ml). Guide cannulae (Plastics One, Roanoke, VA) were implanted bilaterally in the dorsal hippocampus (from bregma: AP-2.1 mm; L+/−1.8 mm; DV-1.2 mm) and secured to the skull with three jeweler's screws and dental cement. Antisedan (0.66 ml/100 g body weight of 0.5 mg drug/ml solution) was given via i.p. injection after surgery to reverse the anesthesia.
(§3) For 7 days following surgery, mice were handled by freely exploring the experimenter's palm for 2-5 min. Mice were trained and tested in the same conditioning box (Coulbourn Habitest, Coulboum Instruments), which consisted of a grid floor and blank walls. […] Freezing behavior (cessation of all movement except breathing) during the 4 min session was recorded by an experimenter blind to the conditions. […]

[3] = system: contextual fear/threat memory in PKMζ-null mice; test: Contextual fear/threat conditioning, infusion into dorsal hippocampus, PKMζ-null mice; type: in vivo, mouse; details: 10 nmol in 0.5 μl per hemisphere in hippocampus, tested 24 h post-infusion
Procedure: as §1, §2, §3

O=S(=O)(O)c1cc(O)c2c(S(=O)(=O)O)cc(S(=O)(=O)O)cc2c1 [ζ-stat, 1-naphthol-3,6,8-trisulphonic acid]
has no effect: effect on BiFC of KIBRA with conventional PKCs [1] | contextual fear/threat memory (% time freezing) [2] | contextual fear/threat memory (% time freezing) [3]
